Experiments:
[1] = biological target: T1, cloned human M2 receptor (Homo sapiens, UniProt P08172); assay: hM2 receptor GTPγS binding; format: biochemical; conditions: CHO membranes, [35S]GTPγS binding
T1 construct: purchased Perkin-Elmer RBHM2M; host or cells: Chinese hamster ovary cells (CHO)
T1 sequence (P08172 1-466): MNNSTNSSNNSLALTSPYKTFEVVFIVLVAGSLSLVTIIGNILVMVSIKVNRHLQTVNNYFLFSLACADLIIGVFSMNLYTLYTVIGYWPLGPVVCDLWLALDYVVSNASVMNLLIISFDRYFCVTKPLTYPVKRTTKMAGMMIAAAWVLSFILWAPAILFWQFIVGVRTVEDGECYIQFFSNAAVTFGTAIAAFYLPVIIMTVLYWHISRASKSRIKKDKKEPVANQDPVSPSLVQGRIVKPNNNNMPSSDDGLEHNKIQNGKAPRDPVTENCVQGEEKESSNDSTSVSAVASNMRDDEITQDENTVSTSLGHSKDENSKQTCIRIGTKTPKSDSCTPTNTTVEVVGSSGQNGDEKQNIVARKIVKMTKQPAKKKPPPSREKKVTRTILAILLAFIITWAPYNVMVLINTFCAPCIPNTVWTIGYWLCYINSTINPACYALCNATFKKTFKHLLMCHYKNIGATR
Experimental: hM2 Receptor GTPγS Binding
Membranes produced from Chinese hamster ovary cells (CHO) expressing the cloned human M2 receptor (human Muscarinic receptor subtype 2, gene bank access NM_000739), were obtained from Perkin-Elmer (RBHM2M). The membranes were thawed at 37° C., passed 3 times through a 23-gauge blunt-end needle, diluted in the GTPγS binding buffer (50 mM Hepes, 20 mM NaOH, 100 mM NaCl, 1 mM EDTA, 5 mM MgCl2, pH 7.4, 100 μM DTT). The EC50, IC50 and Emax of the compounds of the invention were evaluated from 10-point dose-response curves (three fold concentration range) done in 60 μl in 384-well non-specific binding surface plate (Corning). Ten microliters from the dose-response curves plate (5× concentration) were transferred to another 384 well plate containing the following: 10 μg of hM2 membranes, 500 μg of Flashblue beads (Perkin-Elmer) and GDP in a 25 μl volume. An additional 15 μl containing 3.3× (55000 dpm) of GTPγ^35S (0.4 nM final) were added to the wells resulting in a total well volume of 50 μl. Basal and maximal stimulated [^35S]GTPγS binding were determined in absence and presence of 30 μM of acetylcholine agonist. The membranes/beads mix were pre-incubated for 15 minutes at room temperature with 25 μM GDP prior to distribution in plates (12.5 μM final). The reversal of acetylcholine-induced stimulation (2 μM final) of [^35S]GTPγS binding was used to assay the antagonist properties (IC50) of the compounds. The plates were incubated for 60 minutes at room temperature with shaking, then centrifuged at 2000 rpm for 5 minutes. The radioactivity (cpm) were counted in a Trilux (Perkin-Elmer).
(§1) Values of EC50, IC50 and Emax were obtained using sigmoidal fits of a non-linear curve-fitting program (XLfit version 5.0.6 from ID Business Solutions Limited, Guildford, UK) of percent stimulated [^35S]GTPγS binding vs. log(molar ligand).
All EC50 and IC50 values are reported as arithmetic means ± standard error of mean of ‘n’ independent experiments. […] The IC50 was the concentration of the compound of the invention at which 50% inhibition of acetylcholine [^35S]GTPγS binding stimulation has been observed.

[2] = biological target: T2, cloned human M4 receptor (Homo sapiens, UniProt P08173); assay: hM4 receptor GTPγS binding; format: biochemical; conditions: CHO membranes, [35S]GTPγS binding
T2 construct: purchased Perkin-Elmer RBHM4M; host or cells: Chinese hamster ovary cells (CHO)
T2 sequence (P08173 1-479): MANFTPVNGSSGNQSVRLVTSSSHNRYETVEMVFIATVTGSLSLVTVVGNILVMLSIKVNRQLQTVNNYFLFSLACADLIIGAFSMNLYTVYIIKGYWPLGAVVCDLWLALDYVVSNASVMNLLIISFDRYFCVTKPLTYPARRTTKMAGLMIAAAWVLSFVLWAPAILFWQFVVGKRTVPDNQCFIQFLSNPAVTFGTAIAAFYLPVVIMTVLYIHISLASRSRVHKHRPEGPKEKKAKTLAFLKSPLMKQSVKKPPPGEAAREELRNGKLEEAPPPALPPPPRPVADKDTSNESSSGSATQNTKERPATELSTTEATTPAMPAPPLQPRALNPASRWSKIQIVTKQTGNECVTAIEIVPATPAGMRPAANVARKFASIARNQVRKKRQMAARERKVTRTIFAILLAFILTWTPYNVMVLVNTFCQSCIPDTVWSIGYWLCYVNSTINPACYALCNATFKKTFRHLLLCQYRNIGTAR
Experimental: HM4 Receptor GTPγS Binding
Membranes produced from Chinese hamster ovary cells (CHO) expressing the cloned human M4 receptor (human Muscarinic receptor subtype 4, gene bank access NM_000741), were obtained from Perkin-Elmer (RBHM4M). The membranes were thawed at 37° C., passed 3 times through a 23-gauge blunt-end needle, diluted in the GTPγS binding buffer (50 mM Hepes, 20 mM NaOH, 100 mM NaCl, 1 mM EDTA, 5 mM MgCl2, pH 7.4, 100 μM DTT). The EC50, IC50 and Emax of the compounds of the invention were evaluated from 10-point dose-response curves (three fold concentration range) done in 60 μl in 384-well non-specific binding surface plate (Corning). Ten microliters from the dose-response curves plate (5× concentration) were transferred to another 384 well plate containing the following: 10 μg of hM4 membranes, 500 μg of Flashblue beads (Perkin-Elmer) and GDP in a 25 μl volume. An additional 15 μl containing 3.3× (55000 dpm) of GTPγ^35S (0.4 nM final) were added to the wells resulting in a total well volume of 50 μl. Basal and maximal stimulated [^35S]GTPγS binding were determined in absence and presence of 30 μM of acetylcholine agonist. The membranes/beads mix were pre-incubated for 15 minutes at room temperature with 40 μM GDP prior to distribution in plates (20 μM final). The reversal of acetylcholine-induced stimulation (10 μM final) of [^35S]GTPγS binding was used to assay the antagonist properties (IC50) of the compounds. The plates were incubated for 60 minutes at room temperature with shaking, then centrifuged at 2000 rpm for 5 minutes. The radioactivity (cpm) were counted in a Trilux (Perkin-Elmer).
as §1
All EC50 and IC50 values are reported as arithmetic means±standard error of mean of ‘n’ independent experiments. […] The IC50 was the concentration of the compound of the invention at which 50% inhibition of acetylcholine [^35S]GTPγS binding stimulation has been observed.

Structure (SMILES) | EC50 [1] [µM] | EC50 [2] [µM]
O=C(C1CCCC1)N1CCC(N2CCC(N3C(=O)N[C@H]4CCCC[C@@H]43)CC2)CC1 | 2.6 | > 30
O=C1CCCN1CCC(=O)N1CCC(N2CCC(N3C(=O)N[C@@H]4CCCC[C@H]43)CC2)CC1 | 1 | > 30
O=C(OCCF)N1CCC(N2CCC(N3C(=O)N[C@H]4CCCC[C@@H]43)CC2)CC1 | 0.38 | 1.1
O=C1CCCN1CCC(=O)N1CCC(N2CCC(N3C(=O)N[C@H]4CCCC[C@@H]43)CC2)CC1 | 0.5 | 5.1
CCOC(=O)N1CCC(N2CCC(N3C(=O)N[C@H]4CCCC[C@@H]43)CC2)CC1 | 0.12 | 0.33
O=C(C1CC1)N1CCC(N2CCC(N3C(=O)N[C@@H]4CCCC[C@H]43)CC2)CC1 | > 30 | > 30
CC(C)OC(=O)N1CCC(N2CCC(N3C(=O)N[C@H]4CCCC[C@@H]43)CC2)CC1 | 0.76 | 1.3
COc1ccccc1C(=O)N1CCC(N2CCC(N3C(=O)N[C@@H]4CCCC[C@H]43)CC2)CC1 | > 30 | > 30
CCOC(=O)N1CC[C@H](N2CCC(N3C(=O)N[C@H]4CCCC[C@@H]43)CC2)C1 | 7.3 | 9.4
CN1C(=O)N(C2CCN(C3CCN(C(=O)C4CC4)CC3)CC2)[C@H]2CCCC[C@@H]21 | > 30 | > 30
CC(C)OC(=O)N1CCC(N2CCC(N3C(=O)N[C@@H]4CCCC[C@@H]43)CC2)CC1 | 2.5 | 4.5
CC(C)OC(=O)N1CCC(N2CCC(N3C(=O)C[C@H]4CCCC[C@@H]43)CC2)CC1 | 1.2 | 4.2
